Assay results: paper PMC6320955, “Self-Dissolving Microneedle Arrays for Transdermal Absorption Enhancement of Human Parathyroid Hormone (1-34)” (Pharmaceutics, 2018)

Legend:
[1] = tested on: rats with ovariectomy (OVX)-induced osteoporosis; assay: Therapeutic potential in post-menopausal rat model of osteoporosis (OVX); type: in vivo, female Sprague-Dawley rats; conditions: subcutaneous injection of PTH 20 µg/rat, hematoxylin and eosin
Experimental: The post-menopausal rat model of osteoporosis was established by performing ovariectomies (OVX) of female Sprague-Dawley rats. Four weeks following OVX, PTH-loaded MNs (20 µg/rat) were applied to the rats twice a week, for a period of 4 weeks. Separately, PTH (20 µg/rat) was subcutaneously injected into the rats. Eight weeks after OVX, rats were euthanized, and the tibias were excised and fixed in 4% paraformaldehyde in PBS. The fixed tibias were then embedded in paraffin and sectioned by microtome. The sections of tibias were subsequently stained with hematoxylin and eosin and then used for histological analysis.

[2] = In vivo transdermal delivery of PTH: plasma pharmacokinetics; set-up: species or system Wistar rats; conditions: sc, 20 ug/animal, rat, subcutaneous injection of PTH solution, 20 µg/rat, ELISA, mean ± SD of three rats
Experimental: The abdominal skin of Wistar rats was shaved while the animals were placed under pentobarbital anesthesia (52 mg/kg as pentobarbital sodium salt). PTH-loaded MNs (20 µg/rat) were then applied to the abdominal skin of rats. The dosage of PTH in MNs was calculated based on the content of PTH in the needle part of MNs. Separately, PTH solution (20 µg/rat) was subcutaneously injected into the backs of rats. At pre-determined intervals, 0.3 mL of blood was withdrawn from the jugular veins while the animals were placed under pentobarbital anesthesia (52 mg/kg as pentobarbital sodium salt) and collected in tubes containing 0.3 mg of EDTA and 150 KIU of aprotinin. The collected blood was then centrifuged for 15 min at 4000 rpm to obtain plasma. […] The peak PTH plasma concentration (Cmax) and time to reach Cmax (Tmax) were determined directly from the plasma concentration–time profiles. Area under the plasma concentration-time curve (AUC) after transdermal administration or subcutaneous injection was calculated by the trapezoidal formula and extrapolation to infinite time based on monoexponential equation [26].
The PTH in the plasma sample was extracted and purified using SEP-columns. […] Concentrations of PTH were determined using the PTH (1-34) ELISA kit (PTH (1-34), Human, EIA Kit, High Sensitivity, Peninsula Laboratories International, Inc. San Carlos, CA, USA).

[3] = Storage stability of PTH in MNs fabricated from HA and in PBS solution; type: physicochemical; conditions: PTH dissolved in PBS, PTH (1-34) ELISA, mean of three experiments
Experimental: PTH-loaded MNs were packaged into an aluminum sachet purged with nitrogen and stored at −20 °C, 4 °C, or at room temperature (15–20 °C). PTH solution dissolved in PBS was kept at the same temperatures as the control. Following one month of storage, the needles were separated from the back layers of MNs and dissolved in PBS. The actual amounts of PTH present in the needle parts of the MNs were measured using the PTH (1-34) ELISA kit (PTH (1-34), Human, EIA Kit, High Sensitivity, Peninsula Laboratories International, Inc. San Carlos, CA, USA).

CC[C@H](C)[C@H](NC(=O)[C@H](CCC(=O)O)NC(=O)[C@H](CO)NC(=O)[C@@H](NC(=O)[C@@H](N)CO)C(C)C)C(=O)N[C@@H](CCC(N)=O)C(=O)N[C@@H](CC(C)C)C(=O)N[C@@H](CCSC)C(=O)N[C@@H](Cc1c[nH]cn1)C(=O)N[C@@H](CC(N)=O)C(=O)N[C@@H](CC(C)C)C(=O)NCC(=O)N[C@@H](CCCCN)C(=O)N[C@@H](Cc1c[nH]cn1)C(=O)N[C@@H](CC(C)C)C(=O)N[C@@H](CC(N)=O)C(=O)N[C@@H](CO)C(=O)N[C@@H](CCSC)C(=O)N[C@@H](CCC(=O)O)C(=O)N[C@@H](CCCNC(=N)N)C(=O)N[C@H](C(=O)N[C@@H](CCC(=O)O)C(=O)N[C@@H](Cc1c[nH]c2ccccc12)C(=O)N[C@@H](CC(C)C)C(=O)N[C@@H](CCCNC(=N)N)C(=O)N[C@@H](CCCCN)C(=O)N[C@@H](CCCCN)C(=O)N[C@@H](CC(C)C)C(=O)N[C@@H](CCC(N)=O)C(=O)N[C@@H](CC(=O)O)C(=O)N[C@H](C(=O)N[C@@H](Cc1c[nH]cn1)C(=O)N[C@@H](CC(N)=O)C(=O)N[C@@H](Cc1ccccc1)C(=O)O)C(C)C)C(C)C [PTH, Human parathyroid hormone (1-34)]
effect on decrease in bone matrix density (tibia histology) [1]: effectively prevented | Cmax ([2]; Wistar): 15.1 ± 4.6 ng/mL | Tmax ([2]; in vivo): 30 min | initial PTH retained in the solution after storage ([3]; stored one month at 4 °C): ~84% | initial PTH retained in the solution after storage ([3]; stored one month at room temperature (15–20 °C)): ~13% | initial PTH retained in the solution after storage ([3]; stored one month at −20 °C): approximately 98%
